In patent publication US4051259A, “Phenoxyacetic acid amide” (Les Laboratoires Bruneau & Cie, priority 1975, dated 1977):

Assays:
rat = assay: anorexigenic activity (ED50) by the method of LeDouarec; type: in vivo; settings: for ED50: rat, po, read-out: ED50 po (anorexia); for anorexigenic activity (in words): comparison of results within the table
From the text: (§1) The toxicity (LD50) has been determined in the mice by the method of Karber and Behrens (Arch. Expl. Pathol. Pharmacol., 1931, 162, 48) and the anorexigenic activity (ED50) in the rat by the method of LeDouarec (J. Pharmacol. Paris 1970, 1, 419-22).

[1] = toxicity (LD50) by the method of Karber and Behrens; type: in vivo, mice; settings: mouse, in vivo; mice, po
From the text: as §1

mice = assay: as above; type: in vivo; settings: for toxicity (in words): comparison of results within the table
From the text: as §1

Structure (SMILES) | ED50 (rat) [mg/kg] | LD50 [1] [mg/kg] | also measured
CCNc1ccc(OCC(=O)NC(C)Cc2cccc(C(F)(F)F)c2)cc1 (stereo not drawn) [LB 359] | 15 | 1600 | 
CNc1ccc(OCC(=O)NC(C)Cc2cccc(C(F)(F)F)c2)cc1 (stereo not drawn) [LB 367] | 12 | 800 | 
CCCNc1ccc(OCC(=O)NC(C)Cc2cccc(C(F)(F)F)c2)cc1 (stereo not drawn) [LB 368] | 20 | > 1600 | 
CC(C)CNc1ccc(OCC(=O)NC(C)Cc2cccc(C(F)(F)F)c2)cc1 (stereo not drawn) [LB 369] | 25 | > 2000 | 
CCCCCNc1ccc(OCC(=O)NC(C)Cc2cccc(C(F)(F)F)c2)cc1 (stereo not drawn) [LB 411, 1-methyl-2-(m-trifluoromethylphenyl)-ethylamide of p-pentylaminophenoxyacetic acid] | 10 | 4000 | anorexigenic activity (in words) (rat): particularly high; anorexigenic activity (in words) (rat; listed as n-pentyl derivative): outstanding anorexia-inducing properties; intensity of intoxication symptoms (mice; at doses near the LD50): relatively weak; intoxication symptoms (mice; at doses near the LD50, first hour, then later): hypomotility and hypothermia during the first hour than tremor and convulsions; toxicity (in words) (mice): very low; toxicity (in words) (mice; listed as n-pentyl derivative): low toxicity; doses at which intoxication symptoms appear (mice; doses relative to LD50): only at doses near of the LD50
CCCCCCNc1ccc(OCC(=O)NC(C)Cc2cccc(C(F)(F)F)c2)cc1 (stereo not drawn) [LB 446] | 45 | > 4000 | 
CCCCNc1ccc(OCC(=O)NC(C)Cc2cccc(C(F)(F)F)c2)cc1 (stereo not drawn) [LB 448] | 20 | > 2000 | 
